Converted amounts (≈) assume the structure as drawn.
What was measured:
physchem = details: for solubility at 24 h: kinetic from dmso stock
Method: Turbimetric Assay: Determination of Solubility
The solubility of the compounds was measured using a turbidimetric method. A series of doubling dilutions of compounds were prepared in neat dimethyl sulfoxide (DMSO). 5 μl samples were diluted twenty-fold into 95 μl volumes of 100 mM citrate buffer (pH 4), phosphate buffered saline (PBS, pH 7.4) or carbonate-bicarbonate buffer (pH 9) in microtitre assay plates and allowed to reach equilibrium at room temperature for 24 hours. The absorbance within each well of the plate was read spectrophotometrically at a wavelength of 620 nm. A precipitate forms when the maximum aqueous solubility level is reached. The value quoted is the highest concentration where the compound was in solution i.e. where no measurable precipitate was present. […] ND=not determined

[1] = test system: Staphylococcus aureus (Isolate ID ATCC 29213); experiment: Antibacterial activity, MIC, S. aureus; type: cell-based; details: Staphylococcus aureus, ATCC29213, Gram positive strain; broth microdilution or agar dilution
Method: (§1) Bacterial Assay: Determination of Antibacterial Activity
(§2) Compounds of the invention were tested for antimicrobial activity by susceptibility testing in liquid or on solid media. MICs for compounds against each strain were determined by the broth microdilution or agar dilution method according to the guidelines of the Clinical Laboratories and Standards Institute, formerly the National Committee for Clinical Laboratory Standards (Clinical Laboratories and Standards Institute. Methods for Dilution Antimicrobial Susceptibility Tests for Bacteria That Grow Aerobically; Approved Standard—Seventh Edition. Document M7-A7. CLSI, Wayne, Pa., 2006; Clinical Laboratories and Standards Institute. The gram positive bacterial strains tested include S. aureus (Staphylococcus aureus (Isolate ID ATCC 29213)), E. faecalis (Enterococcus faecalis (Isolate ID ATCC 29212)) and S. pyogenes (Streptococcus pyogenes (Isolate ID ATCC 51339)). The gram negative bacterial strains tested include H. influenzae (Haemophilus influenzae (Isolate ID ATCC 49247))

[2] = test system: Haemophilus influenzae (Isolate ID ATCC 49247); experiment: Antibacterial activity, MIC, H. influenzae; type: cell-based; details: Haemophilus influenzae, ATCC49247; Gram negative strain; broth microdilution or agar dilution
Method: as §1, §2

[3] = test system: Streptococcus pyogenes (Isolate ID ATCC 51339); experiment: Antibacterial activity, MIC, S. pyogenes; type: cell-based; details: Streptococcus pyogenes, ATCC51339, Gram positive strain; broth microdilution or agar dilution
Method: as §1, §2

[4] = pH 7.4, aqueous buffer, Max Solubility
[5] = pH 7.4, aqueous buffer, Solubility (pH 7.4)
[6] = pH 7.4, aqueous buffer, Solubility Range
[7] = pH 7.4, aqueous buffer, Solubility Range (maximum solubility)
[8] = pH 9, aqueous buffer, Max Solubility
[9] = pH 9, aqueous buffer, Solubility Range (maximum solubility)

Compound	solubility at 24 h (physchem; [4]) [µg/mL]	solubility at 24 h (physchem; [5]) [µg/mL]	solubility at 24 h (physchem; [6]) [µg/mL]	solubility at 24 h (physchem; [7]) [µg/mL]	MIC [1] [µg/mL]	MIC [2] [µg/mL]	MIC [3] [µg/mL]	solubility at 24 h (physchem; [8]) [µg/mL]	solubility at 24 h (physchem; [9]) [µg/mL]	Solubility (pH 7.4) (physchem; 24 h, pH 7.4)
CCNC(=O)Nc1nc2cc(-c3cnc(C(=O)N4CCC(C)(C(=O)O)CC4)nc3)cc(-c3ccccn3)c2s1 [Compound 192]	≥ 800	≥ 800	> 800	> 800	1 to 16 (≈ 1.83 to 29.3 µM)	1 to 16 (≈ 1.83 to 29.3 µM)	1 to 16 (≈ 1.83 to 29.3 µM)			
CCNC(=O)Nc1nc2cc(-c3cnc(N4CCC(CC)(C(=O)O)CC4)nc3)cc(C(N)=O)c2s1 [Compound 193, 1-[5-[7-carbamoyl-2-(ethylcarbamoylamino)-1,3-benzothiazol-5-yl]pyrimidin-2-yl]-4-ethyl-piperidine-4-carboxylic acid]	≥ 800	≥ 800	> 800	> 800	1 to 16 (≈ 2.01 to 32.2 µM)	1 to 16 (≈ 2.01 to 32.2 µM)	1 to 16 (≈ 2.01 to 32.2 µM)			
CCNC(=O)Nc1nc2cc(-c3cnc(N4CCC(C)(C(=O)O)CC4)nc3)cc(COCCOC)c2s1 [Compound 194]	≥ 800	≥ 800	> 800	> 800	1 to 16 (≈ 1.89 to 30.3 µM)	1 to 16 (≈ 1.89 to 30.3 µM)	1 to 16 (≈ 1.89 to 30.3 µM)			
CCNC(=O)Nc1nc2cc(-c3cnnc(N4CCC(C)(C(=O)O)CC4)c3)cc(-c3ccccn3)c2s1 [Compound 195, 1-[5-[2-(ethylcarbamoylamino)-7-(2-pyridyl)-1,3-benzothiazol-5-yl]pyridazin-3-yl]-4-methyl-piperidine-4-carboxylic acid]	≥ 800	≥ 800	> 800	> 800	1 to 16 (≈ 1.93 to 30.9 µM)	1 to 16 (≈ 1.93 to 30.9 µM)	≤ 0.25			
CCNC(=O)Nc1nc2cc(-c3cnc(NC4COC(C)(C(=O)O)OC4)nc3)cc(-c3ccccn3)c2s1 (stereo not shown) [Compound 196]		50 (≈ 93.4 µM)	12.5 to 400 (≈ 23.3 to 747 µM)		1 to 16 (≈ 1.87 to 29.9 µM)	1 to 16 (≈ 1.87 to 29.9 µM)	1 to 16 (≈ 1.87 to 29.9 µM)	100 (≈ 187 µM)	12.5 to 400 (≈ 23.3 to 747 µM)	
CCNC(=O)Nc1nc2cc(-c3cnc(N4CCC(CC)(C(=O)O)CC4)nc3)cc(C3=NOCC3)c2s1 [Compound 197, 1-[5-[7-(4,5-dihydroisoxazol-3-yl)-2-(ethylcarbamoylamino)-1,3-benzothiazol-5-yl]pyrimidin-2-yl]-4-ethyl-piperidine-4-carboxylic acid]	≥ 800	≥ 800	> 800	> 800	1 to 16 (≈ 1.91 to 30.6 µM)	1 to 16 (≈ 1.91 to 30.6 µM)	0.25 to 1 (≈ 0.477 to 1.91 µM)			
CCNC(=O)Nc1nc2cc(-c3cnc(N4CCC(C)(C(=O)O)CC4)nc3)c(OC)cc2s1 [Compound 198, 1-[5-[2-(Ethylcarbamoylamino)-6-methoxy-1,3-benzothiazol-5-yl]pyrimidin-2-yl]-4-methyl-piperidine-4-carboxylic acid]	≥ 800	≥ 800	> 800	> 800	1 to 16 (≈ 2.13 to 34 µM)	1 to 16 (≈ 2.13 to 34 µM)	1 to 16 (≈ 2.13 to 34 µM)			
CCNC(=O)Nc1nc2cc(-c3cnc(N4CCC(CC)(C(=O)O)CC4)nc3)cc(C=O)c2s1 [Compound 199, 4-ethyl-1-[5-[2-(ethylcarbamoylamino)-7-formyl-1,3-benzothiazol-5-yl]pyrimidin-2-yl]piperidine-4-carboxylic acid]	≥ 800	≥ 800	> 800	> 800	1 to 16 (≈ 2.07 to 33.2 µM)	1 to 16 (≈ 2.07 to 33.2 µM)	0.25 to 1 (≈ 0.518 to 2.07 µM)			
CCNC(=O)Nc1nc2cc(-c3cnc(N4CCC(C)(C(=O)O)CC4)nc3)cc(OC)c2s1 [Compound 200, 1-[5-[2-(Ethylcarbamoylamino)-7-methoxy-1,3-benzothiazol-5-yl]pyrimidin-2-yl]-4-methyl-piperidine-4-carboxylic acid]	≥ 800	≥ 800	> 800	> 800	1 to 16 (≈ 2.13 to 34 µM)	1 to 16 (≈ 2.13 to 34 µM)	1 to 16 (≈ 2.13 to 34 µM)			
CCNC(=O)Nc1nc2cc(-c3cnc(N4CCC(C)(C(=O)O)C4)nc3)cc(-c3ccccn3)c2s1 (stereo not shown) [Compound 201]	≥ 800	≥ 800	> 800	> 800	1 to 16 (≈ 1.99 to 31.8 µM)	1 to 16 (≈ 1.99 to 31.8 µM)	0.25 to 1 (≈ 0.496 to 1.99 µM)			
CCNC(=O)Nc1nc2cc(-c3cnc(N4CCC(C)(C(=O)O)CC4)nc3)cc(COC)c2s1 [Compound 202, 1-[5-[2-(Ethylcarbamoylamino)-7-(methoxymethyl)-1,3-benzothiazol-5-yl]pyrimidin-2-yl]-4-methyl-piperidine-4-carboxylic acid]	≥ 800	≥ 800	> 800	> 800	1 to 16 (≈ 2.06 to 33 µM)	0.25 to 1 (≈ 0.516 to 2.06 µM)	1 to 16 (≈ 2.06 to 33 µM)			
CCNC(=O)Nc1nc2cc(-c3cnc(N4CCC(CC)(C(=O)O)CC4)nc3)cc(COC)c2s1 [Compound 203, 4-Ethyl-1-[5-[2-(ethylcarbamoylamino)-7-(methoxymethyl)-1,3-benzothiazol-5-yl]pyrimidin-2-yl]piperidine-4-carboxylic acid]		100 (≈ 201 µM)	12.5 to 400 (≈ 25.1 to 802 µM)		1 to 16 (≈ 2.01 to 32.1 µM)	1 to 16 (≈ 2.01 to 32.1 µM)	1 to 16 (≈ 2.01 to 32.1 µM)	≥ 800	> 800	
CCNC(=O)Nc1nc2cc(-c3cnc(N4CCC(C)(C(=O)O)CC4)nc3)cc(/C=N/OCC)c2s1 [Compound 204]	≥ 800	≥ 800	> 800	> 800	0.25 to 1 (≈ 0.489 to 1.95 µM)	1 to 16 (≈ 1.95 to 31.3 µM)	0.25 to 1 (≈ 0.489 to 1.95 µM)			
CCNC(=O)Nc1nc2cc(-c3cnc(N4CCC(C)(C(=O)O)CC4)nc3)cc(-c3ccc(CN4CCOCC4)cn3)c2s1 [Compound 205]		400 (≈ 649 µM)	400 to 800 (≈ 649 to 1300 µM)		0.25 to 1 (≈ 0.405 to 1.62 µM)	1 to 16 (≈ 1.62 to 25.9 µM)	0.25 to 1 (≈ 0.405 to 1.62 µM)	≥ 800	> 800	
CCNC(=O)Nc1nc2cc(-c3cnc(N4CCC(CC)(C(=O)O)C4)nc3)cc(-c3ccccn3)c2s1 (stereo not shown) [Compound 206]	≥ 800	≥ 800	> 800	> 800	0.25 to 1 (≈ 0.483 to 1.93 µM)	1 to 16 (≈ 1.93 to 30.9 µM)	≤ 0.25			
CCNC(=O)Nc1nc2cc(-c3cnc(N4CCC(CC)(C(=O)O)CC4)nc3)cc(C(=O)CC)c2s1 [Compound 207, 4-Ethyl-1-(5-(2-(3-ethylureido)-7-propionylbenzo[d]thiazol-5-yl)pyrimidin-2-yl)piperidine-4-carboxylic acid]		100 (≈ 196 µM)	12.5 to 400 (≈ 24.5 to 783 µM)		0.25 to 1 (≈ 0.49 to 1.96 µM)	1 to 16 (≈ 1.96 to 31.3 µM)	0.25 to 1 (≈ 0.49 to 1.96 µM)	400 (≈ 783 µM)	400 to 800 (≈ 783 to 1570 µM)	
CCNC(=O)Nc1nc2cc(-c3cnc(N4CCC(C)(C(=O)O)CC4)nc3)c(OC)c(Br)c2s1 [Compound 208, 1-[5-[7-bromo-2-(ethylcarbamoylamino)-6-methoxy-1,3-benzothiazol-5-yl]pyrimidin-2-yl]-4-methyl-piperidine-4-carboxylic acid]		100 (≈ 182 µM)	12.5 to 400 (≈ 22.7 to 728 µM)		0.25 to 1 (≈ 0.455 to 1.82 µM)	1 to 16 (≈ 1.82 to 29.1 µM)	1 to 16 (≈ 1.82 to 29.1 µM)	200 (≈ 364 µM)	12.5 to 400 (≈ 22.7 to 728 µM)	
CCNC(=O)Nc1nc2cc(-c3csc(N4CCC(CC)(C(=O)O)CC4)n3)cc(-c3ccccn3)c2s1 [Compound 209, 4-Ethyl-1-[4-[2-(ethylcarbamoylamino)-7-(2-pyridyl)-1,3-benzothiazol-5-yl]thiazol-2-yl]piperidine-4-carboxylic acid]		200 (≈ 373 µM)	12.5 to 400 (≈ 23.3 to 745 µM)		0.25 to 1 (≈ 0.466 to 1.86 µM)	1 to 16 (≈ 1.86 to 29.8 µM)	0.25 to 1 (≈ 0.466 to 1.86 µM)	400 (≈ 745 µM)	400 to 800 (≈ 745 to 1490 µM)	
CCNC(=O)Nc1nc2cc(-c3cnc(N4CCC(CC)(C(=O)O)CC4)nc3)nc(-c3ccccn3)c2s1 [Compound 210]	200 (≈ 375 µM)	200 (≈ 375 µM)	12.5 to 400 (≈ 23.5 to 751 µM)	12.5 to 400 (≈ 23.5 to 751 µM)	0.25 to 1 (≈ 0.469 to 1.88 µM)	1 to 16 (≈ 1.88 to 30 µM)	≤ 0.25			
CCNC(=O)Nc1nc2cc(-c3cnc(N4CCC(CC)(C(=O)O)CC4)nc3)cc(/C(CC)=N\OC)c2s1 [Compound 211, (Z)-4-Ethyl-1-(5-(2-(3-ethylureido)-7-(1-(methoxyimino)propyl)benzo[d]thiazol-5-yl)pyrimidin-2-yl)piperidine-4-carboxylic acid]	≥ 800			> 800	0.25 to 1 (≈ 0.463 to 1.85 µM)	1 to 16 (≈ 1.85 to 29.6 µM)	0.25 to 1 (≈ 0.463 to 1.85 µM)			≧800 μg/mL

From patent publication US9181234B2, “Antibacterial compounds” (priority 2010, dated 2015)
